# Data from US9192601B2, “Methods for enhancing muscle performance and tone” (Salk Institute for Biological Studies, priority 2006, dated 2015).
# “Also recorded” adds a separate entry of the source.
# Legend:
# [1] = tested on: C57B/6J mice; test: Treadmill running endurance test; format: in vivo, mouse
# Method: Mice were acclimated to moderate treadmill running (10 m/min for 15 min) every other day for 1 week. After acclimation, basal running endurance was determined by placing each mouse on a treadmill, gradually increasing the speed from 0 to 15 m/min, and maintaining 15 m/min until the mouse was exhausted. The time and distance run until exhaustion were recorded as the basal endurance values (Week 0).
# Treatments were administered orally.
# Expression of biomarkers characteristic of an oxidative phenotype in skeletal muscle, typically, has been correlated with increased oxidative performance (e.g., increased running endurance) of such skeletal muscle. […] Accordingly, to determine the functional effects of ligand, age and weight matched cohorts of treated and control mice were subjected to an endurance treadmill performance test before (week 0) and after (week 5) treatment.
# (§1) In addition to affecting the contractile apparatus of skeletal muscle, exercise training also increases skeletal muscle mitochondrial density (e.g., Freyssenet et al., Arch. Physiol. Biochem., 104(2): 129-141, 1996). […] Mice in all groups were acclimated to moderate treadmill running and basal running endurance was determined as described in Example 1. Thereafter, mice in the exercise-trained groups received four weeks (5 days/week) of exercise training on a treadmill inclined at 5 degrees. […] At the end of four weeks, all exercise-trained mice were running for 50 min/day at 18 m/min. […] Unless otherwise noted, V, GW, Tr and GW+Tr subjects described in this and the examples below were similarly treated. At the end of the drug treatment and/or training protocol (Week 5) 6 mice per group were subjected to the running test. […] RNA was prepared real time quantitative PCR performed as described in Example 1.
# At the end of the drug treatment and/or training protocol (Week 5) 6 mice per group were subjected to the running test.
# At the end of the drug treatment and/or training protocol (Week 5), running endurance of six mice per group was determined in the same manner as was basal running endurance. […] on three mice in each group to confirm that changes observed in the skeletal muscle were not due to the acute run, but were related to the exercise training.
# [2] = tested on: quadriceps muscle; test: Real time quantitative PCR of gene expression in quadriceps muscle; format: in vivo, mouse
# Method: Animals were euthanized by carbon dioxide asphyxiation 72 hours after the final treatment. Gastrocnemius and quadriceps muscles were isolated, frozen and stored at −80° C. for future analysis. Total RNA was prepared from quadriceps muscle using TRIzoL™ reagent (Invitrogen, Carlsbad, Calif., USA) in conformance with manufacturer's instructions. Real time quantitative PCR (QPCR) was used to determine expression levels of uncoupling protein 3 (UCP3), muscle carnitine palmitoyl transferase I (mCPT I) and pyruvate dehydrogenase kinase 4 (PDK4) using primers known to those of ordinary skill in the art.
# as §1
# [3] = tested on: primary muscle cells; test: Gene expression in wild type and PPARδ null primary muscle cells; format: cell-based, mouse; details: wild type vs PPARδ null cells
# Method: Primary muscle cells were isolated from wild type and PPARδ null mice as previously described (Rando and Blau, J. Cell. Biol. 125(6): 1275-87, 1994). […] RNA expression of UCP3, PDK4, LPL, and HSL was determined using real time quantitative PCR as described in Example 1.
# To test this possibility, wild-type and PPARδ null primary muscle cells were used.
# [4] = tested on: myoglobin, UCP3, cytochrome c (CYCS) and SCDl; test: Western blotting of oxidative biomarkers in quadriceps; format: in vivo, mouse; details: combined exercise and GW1516 vs either alone
# Method: In addition to gene expression, protein expression was determined for selective oxidative biomarkers including myoglobin, UCP3, cytochrome c (CYCS) and SCDl, using Western blotting. Protein homogenates were prepared from quadriceps muscle, separated by SDS polyacrylamide gel electrophoresis, transferred to blotting membrane and probed with antibodies specific for myoglobin (Dako), UCP3 (Affinity Bioreagents), cytochrome c (Santacruz) SCDl (Santacruz), and, as a loading control, tubulin (Sigma).
# [5] = Muscle triglyceride (mTG) content; format: in vivo, mouse
# Method: Altered triglycerides can be used to access changes in muscle oxidative capacity. Muscle triglyceride (mTG) content was measured as previously described (Wang et al., PLoC Biol, 2:e294, 2004) using a kit from Thermo Electron Corporation. […] Gene and/or protein expression that is induced by a combination of exercise and drug treatment (e.g., PPARδ agonist administration) but not by either input alone is believed to be a new discovery. This type of response can be used to further characterize the intersection of pharmacologic and physiologic genetic networks. For example, one or more genes and/or proteins uniquely regulated by one or more drugs {e.g., PPARδ agonists) and exercise can be used as markers, for instance, of illicitly boosting performance in professional and/or amateur athletes.
# [6] = tested on: AMPK; test: Western blot of phospho-AMPK in quadriceps; format: in vivo, mouse; details: sedentary or trained muscles
# Source text: (§2) Exercise training is known to activate kinases, such as p44/42 MAPK and AMPK, which regulate gene expression in skeletal muscle (Chen et al., Diabetes, 52:2205-12, 2003; Goodyear et al., Am. J. Physiol, 271:[…]-8, 1996). AMPK affects skeletal muscle gene expression and oxidative metabolism (Chen et al., Diabetes. 52: 2205-12, 2003, Reznick et al., J. Physiol. 574: 33-9, 2006). The interaction between exercise-regulated kinases and PPARδ signaling is described in this Example. The levels of phospho-p44/42 MAPK and phospho-AMPK a subunit and total AMPK were determined in protein homogenates of quadriceps muscle by Western blot. Antibodies specific for phospho-p44/42 MAPK, phospho- and total-AMPK αl antibodies were obtained from Cell Signaling. The phospho-specific AMPK αl antibody recognizes the key activating threonine in the activation loop.
# [7] = tested on: p44/42 MAPK; test: Western blot of phospho-p44/42 MAPK in quadriceps; format: in vivo, mouse; details: sedentary or trained muscles
# Source text: as §2
# [8] = Exercise effect in healthy adult human subjects (Example 9); format: in vivo; details: 1 to 20 mg per day oral with aerobic exercise
# Method: Healthy adult human subjects perform aerobic exercise (e.g., running) for at least 30 minutes (e.g., 30-90 minutes) for at least 3-4 days per week (e.g., 3-7 days per week) for at least 2 weeks (e.g., at least 4-12 weeks). The exercise is performed at 40%-50% maximal heart rate, […] maximal heart rate, 60%-70% maximal heart rate, or 75%-80% maximal heart rate, where maximum heart rate for a human subject is calculated as: 220 bps−(age of the subject). […] Subjects can continue to perform aerobic exercise while receiving GW1516. […] The exercise effect achieved in the treated subjects (e.g., running endurance) can be compared to such an effect in untreated subjects. Exercise effect can be measured using methods known in the art, such as measuring aerobic or running endurance (for example measuring distance run until exhaustion or amount of time to run a particular distance). In some instances, the exercise effect of interest is increased in treated subjects by at least 5%, such as at least 10% as compared to untreated subjects.
# [9] = 4 weeks exercise training + GW1516, Week 5
smiles,measurement,setting,value
"Cc1cc(SCc2sc(-c3ccc(C(F)(F)F)cc3)nc2C)ccc1OCC(=O)O [GW1516, (2-methyl-4(((4-methyl-2-(4-trifluoromethylphenyl)-1,3-thiazol-5-yl)methyl)sulfanyl)phenoxy)acetic acid]",increase in running distance over vehicle-treated trained mice,[1]; [9],70%
same,increase in running time over vehicle-treated trained mice,[1]; [9],68%
same,run longer and further than nontreated controls,[1]; combined with exercise training,60%-75%
same,"increment in endurance capacity, week 5 vs week 0","[1]; exercise and drug treatment, individual mice",100%
same,time spent or distance run on the treadmill prior to exhaustion vs controls,"[1]; sedentary mice, 5 mg/kg oral once per day, 4 weeks",did not significantly differ
same,running endurance,"[1]; sedentary mice, long-term treatment up to 5 months",did not change
same,"earliest detection of changes in UCP3, mCPT I, PDK4 expression",[2]; 2-5 mg/kg/day,4 days
same,"expression of SCDl, FAS, SREBPIc, FAT/CD36, LPL",[2]; GW1516 alone,no response
same,"expression of UCP3, mCPT I, and PDK4","[2]; GW1516 alone, four weeks, quadriceps",induced; also recorded: upregulated
same,"expression of SCDl, FAS, SREBPIc, FAT/CD36, LPL",[2]; GW1516 combined with exercise,robustly induced
same,"expression of UCP3, mCPT I, and PDK4",[2]; GW1516 with exercise vs GW1516 alone,no further induction
same,"induction of oxidative genes (UCP3, mCPT I, PDK4)",[3],mediated via activation of PPARδ
same,"myoglobin, UCP3, cytochrome c, and SCDl protein expression",[4],robust up regulation
same,exercise-induced increase in muscle triglycerides,[5]; GW1516-treated exercise trained mice,completely reversed
same,mTG content vs vehicle,[5]; sedentary mice,comparable
same,activation of AMPK,[6],failed to activate
same,activation of p44/42,[7],failed to activate
same,increase of exercise effect vs untreated subjects,[8],at least 5%
